In patent US12226381B2, “Composition of fused tricyclic gamma-amino acid derivatives and the preparation thereof” (SICHUAN HAISCO PHARMACEUTICAL CO., LTD., priority 2018, dated 2025):

Test system: CCI molded SD rats
Experiment: Rat CCI-induced nociception sensitization model, mechanical pain threshold
Format: in vivo
Settings: single oral administration; for mechanical pain threshold: FIGS. 2 and 3
Procedure: 3. Rat CCI-Induced Nociception Sensitization Model
SD rats of 160-180 g were purchased from Charles River (Beijing) with a license number of sCXK (Beijing)-2012-001 and a qualification number of 11400700254251. The surgery was performed to establish the CCI model as follows: the animals ware first anesthetized, then the left posterior sciatic nerve was exposed. A 2 mm long PE-90 catheter was applied to the middle site of the sciatic nerve. Finally the muscle and skin were sutured. Adaptation of the animal's left hind limb at 15g was carried out from day 10 after the surgery, three times a week.
The baseline testing was performed 17 days after surgery (starting from 2g at the time of testing, with an upper limit of 8g and a lower limit of 1g which is the −24h point), with a pain threshold of 1-4g as a grouping criterion. Grouping was done according to baseline test results, with 10 animals per group. The animals in the group were fasted but given water overnight. On the second day, mechanical pain values were tested at 2 h, 4 h and 6 h after oral/intragastric administration. The test started at 8 g, with an upper limit of 15g and a lower limit of 1g.
The data were processed according to equation (1) to calculate the PWT 50% value, where Xf is the log value of the final test fibers used in the test, k is a table value (Chaplan et al., 1994), and δ is the mean difference (here 0.224). PWT50%(g)=(10[Xf+kδ])/10000 [equation (1)]
The data were expressed in a form of mean±standard deviation (X±s) and were statistically analyzed using one-way ANOVA and Dunnett's t test (Graphpad prism 6.01).

SMILES | effective dose | mechanical pain threshold
NC[C@@]1(CC(=O)O)[C@@H]2CC[C@H]3C[C@@H]2[C@@H]1C3.O=S(=O)(O)c1ccccc1 [Compound 1] | 3 mg/kg | significantly increased
CC(C)C[C@H](CN)CC(=O)O [pregabalin] | 10 mg/kg | significantly increased
